According to patent US20230150974A1 (Foghorn Therapeutics Inc., priority 2020, published 2023):
Read-outs that look alike come from different tables or passages of the source.

Columns and labels:
HiBiT-BRM = target: T1, HiBiT-BRM (Homo sapiens, UniProt P51531); assay: HiBiT-BRM cell-based degradation assay (Nano-Glo HiBiT Lytic Detection)
T1 construct: expressed in transfected cells
Method: (§1) Procedure: A stable HeLa cell line expressing HiBiT-BRM was generated. On day 0, 5000 cells were seeded in 40 μL of media into each well of 384-well cell culture plates. […] Subsequently plates were incubated for 24 h in a standard tissue culture incubator and equilibrated at room temperature for 15 minutes. Nano-Glo HiBiT Lytic Detection System (Promega N3050) reagent was freshly prepared and 20 ul was added to each well. Upon addition of this LgBit-containing reagent, the HiBiT and LgBiT proteins associate to form the luminescent NanoBiT luciferase. The plates were shaken for 10 minutes at room temperature and the bioluminescence read using an EnVision plate reader (PerkinElmer).
(§2) The degradation % was calculated using the following formula: % degradation=100%−100%×(LumSample−LumLC)/(LumHC−LumLC). DMSO treated cells are employed as High Control (HC) and 2 μM of a known BRM/BRG1 degrader standard treated cells are employed as Low Control (LC).

HiBit-BRG1 = target: T2, HiBit-BRG1 (Homo sapiens, UniProt P51532); assay: HiBit-BRG1 cell-based degradation assay (Nano-Glo HiBiT Lytic Detection)
T2 construct: expressed in transfected cells
Method: as §1
For measurement of BRG1 degradation, a stable HeLa cell line expressing HiBit-BRG1 and LgBit was generated. The same protocol as above was then followed.
as §2

[1] = HeLa cells expressing HiBiT-BRM, 24 h
[2] = HeLa cells expressing HiBiT-BRM, 24 h; read-out: BRM HiBit Degradation IC50
[3] = HeLa cells expressing HiBit-BRG1 and LgBit, 24 h; read-out: BRG1 HiBit Degradation IC50
[4] = HeLa cells expressing HiBit-BRG1 and LgBit, 24 h; read-out: BRG1 HiBit Degradation Maximum (%)

T1 sequence (P51531 whole entry): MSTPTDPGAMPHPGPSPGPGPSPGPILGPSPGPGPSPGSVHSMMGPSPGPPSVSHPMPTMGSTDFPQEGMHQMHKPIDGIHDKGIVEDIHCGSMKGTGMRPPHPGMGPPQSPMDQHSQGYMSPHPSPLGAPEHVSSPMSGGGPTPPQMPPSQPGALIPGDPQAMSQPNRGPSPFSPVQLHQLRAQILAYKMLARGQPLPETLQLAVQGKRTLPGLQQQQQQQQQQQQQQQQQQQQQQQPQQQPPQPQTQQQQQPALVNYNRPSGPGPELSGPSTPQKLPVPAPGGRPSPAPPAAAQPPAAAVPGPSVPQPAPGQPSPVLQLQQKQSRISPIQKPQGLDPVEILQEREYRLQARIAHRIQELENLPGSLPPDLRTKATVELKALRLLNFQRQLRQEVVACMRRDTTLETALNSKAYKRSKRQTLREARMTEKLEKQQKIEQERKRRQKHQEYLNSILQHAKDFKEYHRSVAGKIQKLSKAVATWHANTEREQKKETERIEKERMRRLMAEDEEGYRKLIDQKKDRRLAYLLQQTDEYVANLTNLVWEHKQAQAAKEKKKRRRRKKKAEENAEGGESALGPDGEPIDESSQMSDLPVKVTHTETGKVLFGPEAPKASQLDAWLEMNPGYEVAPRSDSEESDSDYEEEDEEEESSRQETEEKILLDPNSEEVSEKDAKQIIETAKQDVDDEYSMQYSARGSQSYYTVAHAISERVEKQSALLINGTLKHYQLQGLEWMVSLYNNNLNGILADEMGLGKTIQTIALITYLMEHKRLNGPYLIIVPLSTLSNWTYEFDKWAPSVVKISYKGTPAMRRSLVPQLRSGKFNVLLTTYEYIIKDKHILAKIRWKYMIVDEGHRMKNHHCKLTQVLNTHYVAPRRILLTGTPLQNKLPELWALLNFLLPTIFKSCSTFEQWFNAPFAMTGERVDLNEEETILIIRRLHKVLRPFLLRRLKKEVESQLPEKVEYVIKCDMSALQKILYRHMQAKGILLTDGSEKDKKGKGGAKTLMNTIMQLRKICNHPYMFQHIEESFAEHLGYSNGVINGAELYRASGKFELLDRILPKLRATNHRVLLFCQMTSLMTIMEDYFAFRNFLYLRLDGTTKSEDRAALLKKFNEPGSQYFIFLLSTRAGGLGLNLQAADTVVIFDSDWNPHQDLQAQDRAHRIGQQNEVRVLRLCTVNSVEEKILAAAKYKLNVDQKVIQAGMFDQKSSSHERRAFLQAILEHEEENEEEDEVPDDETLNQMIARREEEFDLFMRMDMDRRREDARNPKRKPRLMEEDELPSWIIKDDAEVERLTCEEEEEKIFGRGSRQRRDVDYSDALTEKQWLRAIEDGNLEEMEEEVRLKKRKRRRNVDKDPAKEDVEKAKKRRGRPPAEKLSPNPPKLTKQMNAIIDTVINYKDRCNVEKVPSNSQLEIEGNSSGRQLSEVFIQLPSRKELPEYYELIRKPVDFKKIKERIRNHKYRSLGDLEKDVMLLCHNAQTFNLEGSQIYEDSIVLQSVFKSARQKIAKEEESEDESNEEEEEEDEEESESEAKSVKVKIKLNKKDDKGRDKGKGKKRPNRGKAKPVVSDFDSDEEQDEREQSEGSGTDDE
T2 sequence (P51532 whole entry): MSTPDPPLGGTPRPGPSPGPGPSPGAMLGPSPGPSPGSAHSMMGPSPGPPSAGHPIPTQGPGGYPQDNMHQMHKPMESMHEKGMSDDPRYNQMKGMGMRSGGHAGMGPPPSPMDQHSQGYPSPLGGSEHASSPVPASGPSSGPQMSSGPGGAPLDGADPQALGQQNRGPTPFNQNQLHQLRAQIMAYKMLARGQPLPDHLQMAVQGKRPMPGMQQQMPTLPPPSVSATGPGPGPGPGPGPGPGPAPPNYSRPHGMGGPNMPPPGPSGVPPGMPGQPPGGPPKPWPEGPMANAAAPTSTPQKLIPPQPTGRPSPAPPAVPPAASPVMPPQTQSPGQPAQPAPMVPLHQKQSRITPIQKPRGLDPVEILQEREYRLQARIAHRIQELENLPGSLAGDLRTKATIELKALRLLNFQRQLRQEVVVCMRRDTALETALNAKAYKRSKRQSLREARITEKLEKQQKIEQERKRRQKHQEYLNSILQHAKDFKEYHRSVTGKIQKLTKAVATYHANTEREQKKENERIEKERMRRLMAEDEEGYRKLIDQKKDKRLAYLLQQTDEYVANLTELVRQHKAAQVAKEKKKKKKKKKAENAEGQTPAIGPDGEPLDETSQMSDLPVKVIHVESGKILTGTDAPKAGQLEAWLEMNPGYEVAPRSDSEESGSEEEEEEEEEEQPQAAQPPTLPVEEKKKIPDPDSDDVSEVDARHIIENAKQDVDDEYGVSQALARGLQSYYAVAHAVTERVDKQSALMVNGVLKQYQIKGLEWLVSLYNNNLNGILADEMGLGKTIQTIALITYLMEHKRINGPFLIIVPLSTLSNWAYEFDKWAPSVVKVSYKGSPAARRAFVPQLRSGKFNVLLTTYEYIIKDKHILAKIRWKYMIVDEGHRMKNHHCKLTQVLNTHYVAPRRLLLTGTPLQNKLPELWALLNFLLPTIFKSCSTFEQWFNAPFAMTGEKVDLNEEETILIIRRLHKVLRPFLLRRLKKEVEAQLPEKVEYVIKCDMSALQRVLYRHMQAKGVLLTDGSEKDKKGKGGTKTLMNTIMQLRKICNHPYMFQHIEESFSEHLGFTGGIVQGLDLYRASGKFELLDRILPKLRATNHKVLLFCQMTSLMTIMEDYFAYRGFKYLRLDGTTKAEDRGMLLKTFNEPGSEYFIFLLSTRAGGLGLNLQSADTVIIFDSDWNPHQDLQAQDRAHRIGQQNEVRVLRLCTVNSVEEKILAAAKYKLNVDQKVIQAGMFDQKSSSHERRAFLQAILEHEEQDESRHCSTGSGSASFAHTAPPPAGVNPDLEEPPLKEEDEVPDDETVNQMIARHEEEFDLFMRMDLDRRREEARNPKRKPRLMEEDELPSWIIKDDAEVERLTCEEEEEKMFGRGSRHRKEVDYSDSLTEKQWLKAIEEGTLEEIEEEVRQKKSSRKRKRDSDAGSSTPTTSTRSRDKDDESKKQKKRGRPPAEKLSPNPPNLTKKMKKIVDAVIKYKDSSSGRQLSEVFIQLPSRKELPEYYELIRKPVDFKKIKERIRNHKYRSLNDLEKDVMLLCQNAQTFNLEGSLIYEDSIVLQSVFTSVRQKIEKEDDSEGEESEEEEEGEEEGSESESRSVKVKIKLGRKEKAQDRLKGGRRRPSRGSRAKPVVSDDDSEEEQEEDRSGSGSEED

SMILES | DC50 (HiBiT-BRM; [2]) [nM] | DC50 (HiBit-BRG1; [3]) [nM] | Dmax (HiBit-BRG1; [4]) [%] | BRM HiBit Degradation Maximum (%) (HiBiT-BRM; [1]) | DC50 (HiBiT-BRM; read-out: BRM HiBit Degradation IC50; HeLa cells expressing HiBiT-BRM, 24 h) [nM] | DC50 (HiBit-BRG1; read-out: BRG1 HiBit Degradation IC50; HeLa cells expressing HiBit-BRG1 and LgBit, 24 h) [nM]
Nc1nnc(-c2ccccc2O)cc1OCCc1ccc(CNC(=O)CCCCNc2cccc3nnn(C4CCC(=O)NC4=O)c(=O)c23)cc1 (centres unmarked) [Compound 1, N-(4-(2-((3-amino-6-(2-hydroxyphenyl)pyridazin-4-yl)oxy)ethyl)benzyl)-5-((3-(2,6-dioxopiperidin-3-yl)-4-oxo-3,4-dihydrobenzo[d][1,2,3]triazin-5-yl)amino)pentanamide] | > 100 | > 1000 | – | – | – | –
Nc1nnc(-c2ccccc2O)cc1OCCc1ccc(CNC(=O)CCCCNc2cccc3c2CN(C2CCC(=O)NC2=O)C3=O)cc1 (centres unmarked) [Compound 2, N-(4-(2-((3-amino-6-(2-hydroxyphenyl)pyridazin-4-yl)oxy)ethyl)benzyl)-5-((2-(2,6-dioxopiperidin-3-yl)-1-oxoisoindolin-4-yl)amino)pentanamide] | > 1000 | > 1000 | – | C (“C” indicates maximum degradation <50%) | – | –
Nc1nnc(-c2ccccc2O)cc1OCCc1ccc(CNCCN2CCN(c3ccc4c(c3)C(=O)N(C3CCC(=O)NC3=O)C4=O)CC2)cc1 (centres unmarked) [Compound 3, 5-(4-(2-((4-(2-((3-amino-6-(2-hydroxyphenyl)pyridazin-4-yl)oxy)ethyl)benzyl)amino)ethyl)piperazin-1-yl)-2-(2,6-dioxopiperidin-3-yl)isoindoline-1,3-dione] | > 1000 | > 1000 | < 50 | C (“C” indicates maximum degradation <50%) | – | –
Nc1nnc(-c2ccccc2O)cc1OCCc1ccc(CNC(=O)CCCCNc2cccc3c2C(=O)N(C2CCC(=O)NC2=O)C3=O)cc1 (centres unmarked) [Compound 4, N-[[4-(2-[[3-amino-6-(2-hydroxyphenyl)pyridazin-4-yl]oxy]ethyl)phenyl]methyl]-5-[[2-(2,6-dioxopiperidin-3-yl)-1,3-dioxoisoindol-4-yl]amino]pentanamide] | > 100 | > 1000 | – | B (“B” indicates maximum degradation ≥50%) | – | –
Nc1nnc(-c2ccccc2O)cc1OCCc1ccc(CNC(=O)CCCCOc2ccc3c(c2)C(=O)N(C2CCC(=O)NC2=O)C3=O)cc1 (centres unmarked) [Compound 5, N-(4-(2-((3-amino-6-(2-hydroxyphenyl)pyridazin-4-yl)oxy)ethyl)benzyl)-5-((2-(2,6-dioxopiperidin-3-yl)-1,3-dioxoisoindolin-5-yl)oxy)pentanamide] | > 1000 | > 1000 | – | C (“C” indicates maximum degradation <50%) | – | –
Nc1nnc(-c2ccccc2O)cc1OCCc1ccc(C(=O)NCCCCCCCCCCCCCCC(=O)NCc2ccc(S(=O)(=O)Nc3cccc4c(Cl)c[nH]c34)cc2)cc1 [Compound 6, 15-[[4-(2-[[3-amino-6-(2-hydroxyphenyl)pyridazin-4-yl]oxy]ethyl)phenyl]formamido]-N-([4-[(3-chloro-1H-indol-7-yl)sulfamoyl]phenyl]methyl)pentadecanamide] | > 1000 | > 1000 | < 50 | C (“C” indicates maximum degradation <50%) | – | –
Nc1nnc(-c2ccccc2O)cc1OCCc1ccc(CNC(=O)NCCCOc2cccc3c2C(=O)N(C2CCC(=O)NC2=O)C3=O)cc1 (centres unmarked) [Compound 8, 1-(4-(2-((3-amino-6-(2-hydroxyphenyl)pyridazin-4-yl)oxy)ethyl)benzyl)-3-(3-((2-(2,6-dioxopiperidin-3-yl)-1,3-dioxoisoindolin-4-yl)oxy)propyl)urea] | – | – | – | B (“B” indicates maximum degradation ≥50%) | > 1000 | > 1000
Nc1nnc(-c2ccccc2O)cc1OCCc1ccc(CNCCCCCOc2cccc3c2C(=O)N(C2CCC(=O)NC2=O)C3=O)cc1 (centres unmarked) [Compound 9, 4-[[5-([[4-(2-[[3-amino-6-(2-hydroxyphenyl)pyridazin-4-yl]oxy]ethyl)phenyl]methyl]amino)pentyl]oxy]-2-(2,6-dioxopiperidin-3-yl)isoindole-1,3-dione] | > 100 | > 1000 | – | A (“A” indicates maximum degradation ≥75%) | – | –

More lines, main results first:

DC50 (HiBiT-BRM; [2]) [nM] | DC50 (HiBit-BRG1; [3]) [nM] | Dmax (HiBit-BRG1; [4]) [%] | SMILES | BRM HiBit Degradation Maximum (%) (HiBiT-BRM; [1]) | DC50 (HiBiT-BRM; read-out: BRM HiBit Degradation IC50; HeLa cells expressing HiBiT-BRM, 24 h) [nM] | DC50 (HiBit-BRG1; read-out: BRG1 HiBit Degradation IC50; HeLa cells expressing HiBit-BRG1 and LgBit, 24 h) [nM]
> 100 | > 1000 | < 50 | CCN(CCc1ccc(C(=O)NCCCCCCCCCC(=O)N[C@H](C(=O)N2C[C@H](O)C[C@H]2C(=O)NCc2ccc(-c3scnc3C)cc2)C(C)(C)C)cc1)c1cc(-c2ccccc2O)nnc1N (racemic) [Compound 144, (2S,4R)-1-((S)-2-(10-(4-(2-((3-amino-6-(2-hydroxyphenyl)pyridazin-4-yl)(ethyl)amino)ethyl)benzamido)decanamido)-3,3-dimethylbutanoyl)-4-hydroxy-N-(4-(4-methylthiazol-5-yl)benzyl)pyrrolidine-2-carboxamide] | A (“A” indicates maximum degradation ≥75%) | – | –
> 1000 | > 1000 | < 50 | Cc1ncsc1-c1ccc(CNC(=O)[C@H]2C[C@H](O)CN2C(=O)[C@H](NC(=O)CCCCCNC(=O)c2ccc(CCOc3cc(-c4ccccc4O)nnc3N)cc2)C(C)(C)C)cc1 (stereo in doubt) [Compound 53, (2R,4S)-1-((R)-2-(6-(4-(2-((3-amino-6-(2-hydroxyphenyl)pyridazin-4-yl)oxy)ethyl)benzamido)hexanamido)-3,3-dimethylbutanoyl)-4-hydroxy-N-(4-(4-methylthiazol-5-yl)benzyl)pyrrolidine-2-carboxamide] | C (“C” indicates maximum degradation <50%) | – | –
> 1000 | > 1000 | < 50 | Cc1ncsc1-c1ccc(CNC(=O)[C@H]2C[C@H](O)CN2C(=O)[C@H](NC(=O)COCCOCCNC(=O)c2ccc(CCOc3cc(-c4ccccc4O)nnc3N)cc2)C(C)(C)C)cc1 (stereo in doubt) [Compound 59, (2R,4S)-1-[(2R)-2-[2-[2-(2-[[4-(2-[[3-amino-6-(2-hydroxyphenyl)pyridazin-4-yl]oxy]ethyl)phenyl]formamido]ethoxy)ethoxy]acetamido]-3,3-dimethylbutanoyl]-4-hydroxy-N-[[4-(4-methyl-1,3-thiazol-5-yl)phenyl]methyl]pyrrolidine-2-carboxamide] | B (“B” indicates maximum degradation ≥50%) | – | –
> 1000 | > 1000 | < 50 | Cc1ncsc1-c1ccc(CNC(=O)[C@H]2C[C@H](O)CN2C(=O)[C@H](NC(=O)COCCOCCOCCNC(=O)c2ccc(CCOc3cc(-c4ccccc4O)nnc3N)cc2)C(C)(C)C)cc1 (stereo in doubt) [Compound 60, (2R,4S)-1-[(2R)-2-(2-[2-[2-(2-[[4-(2-[[3-amino-6-(2-hydroxyphenyl)pyridazin-4-yl]oxy]ethyl)phenyl]formamido]ethoxy)ethoxy]ethoxy]acetamido)-3,3-dimethylbutanoyl]-4-hydroxy-N-[[4-(4-methyl-1,3-thiazol-5-yl)phenyl]methyl]pyrrolidine-2-carboxamide] | B (“B” indicates maximum degradation ≥50%) | – | –
> 1000 | > 1000 | < 50 | Cc1ncsc1-c1ccc(CNC(=O)[C@H]2C[C@H](O)CN2C(=O)[C@H](NC(=O)CCCCCNC(=O)CN2CCN(c3cc(-c4ccccc4O)nnc3N)CC2)C(C)(C)C)cc1 (stereo in doubt) [Compound 101, (2R,4S)-1-[(2R)-2-[6-(2-[4-[3-amino-6-(2-hydroxyphenyl)pyridazin-4-yl]piperazin-1-yl]acetamido)hexanamido]-3,3-dimethylbutanoyl]-4-hydroxy-N-[[4-(4-methyl-1,3-thiazol-5-yl)phenyl]methyl]pyrrolidine-2-carboxamide] | B (“B” indicates maximum degradation ≥50%) | – | –
> 1000 | > 1000 | < 50 | Nc1nnc(-c2ccccc2O)cc1OCCc1ccc(CNC(=O)C2CC2CNC(=O)COc2cccc3c2C(=O)N(C2CCC(=O)NC2=O)C3=O)cc1 (centres unmarked) [Compound 7, N-[[4-(2-[[3-amino-6-(2-hydroxyphenyl)pyridazin-4-yl]oxy]ethyl)phenyl]methyl]-2-[(2-[[2-(2,6-dioxopiperidin-3-yl)-1,3-dioxoisoindol-4-yl]oxy]acetamido)methyl]cyclopropane-1-carboxamide] | C (“C” indicates maximum degradation <50%) | – | –
> 1000 | > 1000 | < 50 | CN(Cc1ccc(CCOc2cc(-c3ccccc3O)nnc2N)cc1)C(=O)CCCCOc1cccc2c1C(=O)N(C1CCC(=O)NC1=O)C2=O (centres unmarked) [Compound 10, N-(4-(2-((3-amino-6-(2-hydroxyphenyl)pyridazin-4-yl)oxy)ethyl)benzyl)-5-((2-(2,6-dioxopiperidin-3-yl)-1,3-dioxoisoindolin-4-yl)oxy)-N-methylpentanamide] | C (“C” indicates maximum degradation <50%) | – | –
